Experimental data: patent US11098238B2, “Tracer and method” (JOHNSON MATTHEY PUBLIC LIMITED COMPANY, priority 2016, dated 2021)

Key:
[1] = log Kow (octanol/water partition coefficient); type: physicochemical; details: for Log Kow: base-10 logarithm of ratio of equilibrium concentrations in octanol and water
Description: Preferably the system is an oil reservoir and the property is the residual oil saturation. Thus, preferably the use is of a partitioning tracer for determining residual oil saturation, the partitioning tracer comprising a sulfone compound having a log Kow value in the range −0.5 to 3. Preferably the log Kow value is in the range 0.5 to 1.5. Those ranges may give optimum partitioning into the oil in the formation. If the log Kow value is too high, the partitioning tracer will spend too long in the oil and will not be released from the well in a reasonable time, or even at all. If the log Kow value is too low, the partitioning tracer will largely remain in the water phase and there will not be a sufficient differential between the release of the conservative and partitioning tracers. The log Kow value is the base-10 logarithm of the ratio of the equilibrium concentrations of the tracer in octanol and water and can be determined for example, by the method described in “Experimental Aspects of Partitioning Tracer Tests for Residual Oil Saturation Determination with FIA-based Laboratory Equipment, SPE Reservoir Engineering, May 1990, pages 239-244”.
The log Kow values are either experimentally determined or estimated using KOWWIN v1.68.

| SMILES | Log Kow [1] | Vapour Pressure (Vapour pressure) | log Kow value [1] |
| --- | --- | --- | --- |
| CS(=O)(=O)c1ccc(Cl)cc1 [4-Chlorophenyl methyl sulfone, 4-chlorophenyl methyl sulfone] | 1.21 |  |  |
| OC(C(F)(F)F)C(F)(F)F [1,1,1,3,3,3-Hexafluoro-2-propanol, 1,1,1,3,3,3-hexafluoro-2-propanol] | 1.66 | 156 mm Hg |  |
| CS(C)(=O)=O [dimethylsulfone] |  |  | −1.11 |
| OCc1ccc(Cl)cc1 [4-Chlorobenzyl alcohol, 4-chlorobenzyl alcohol] | 1.72 | 0.00268 mm Hg |  |
